Assay type in all cases: functional
Assay [1] concerns Tetranychus urticae. As to the kind of experiment: Insecticidal activity against Tetranychus urticae LS-VL (two-spotted spider mite).
The test system of assay [2] is Tetranychus evansi. In words: Insecticidal activity against Tetranychus evansi R2 in clean French bean leaf assessed as mortality at 26 degC and 16 hr day length measured after 48 hr by microimmersion protocol.
For assay [3], the system named is Tetranychus evansi. As to the kind of experiment: Insecticidal activity against Tetranychus evansi R1 in clean French bean leaf assessed as mortality at 26 degC and 16 hr day length measured after 48 hr by microimmersion protocol.
In assay [4] the test system is Tetranychus evansi. In words: Insecticidal activity against Tetranychus evansi TOR in clean French bean leaf assessed as mortality at 26 degC and 16 hr day length measured after 48 hr by microimmersion protocol.
Assay [5] relates to Tetranychus evansi. As to the kind of experiment: Insecticidal activity against Tetranychus evansi ST JEA in clean French bean leaf assessed as mortality at 26 degC and 16 hr day length measured after 48 hr by microimmersion protocol.
In assay [6] the test system is Tetranychus urticae. In words: Insecticidal activity against Tetranychus urticae (two-spotted spider mite).

Converted amounts (≈) assume the structure as drawn.

As usually defined, the LC50 is the concentration lethal to half of the exposed cells or organisms. `Cc1c(COC(=O)[C@@H]2[C@H](/C=C(\Cl)C(F)(F)F)C2(C)C)cccc1-c1ccccc1` (relative stereo) [BIFENTHRIN]: the LC50 in the assay on Tetranychus urticae [1] was determined as 5.5 µg/mL (≈ 0.013 mM); in the assay on Tetranychus evansi [2], 3560 µg/mL (≈ 8.42 mM); with Tetranychus evansi [3], 1860 µg/mL (≈ 4.39 mM); in the assay on Tetranychus evansi [4], 92 µg/mL (≈ 0.218 mM); with Tetranychus evansi [5], 135 µg/mL (≈ 0.318 mM).

Take `CC[C@H](C)[C@H]1O[C@]2(C=C[C@@H]1C)C[C@@H]1C[C@@H](C/C=C(\C)[C@@H](O[C@H]3C[C@H](OC)[C@@H](O[C@H]4C[C@H](OC)[C@@H](O)[C@H](C)O4)[C@H](C)O3)[C@@H](C)/C=C/C=C3\CO[C@@H]4[C@H](O)C(C)=C[C@@H](C(=O)O1)[C@]34O)O2.CO[C@H]1C[C@H](O[C@H]2[C@H](C)O[C@@H](O[C@@H]3/C(C)=C/C[C@@H]4C[C@@H](C[C@]5(C=C[C@H](C)[C@@H](C(C)C)O5)O4)OC(=O)[C@@H]4C=C(C)[C@@H](O)[C@H]5OC/C(=C\C=C\[C@@H]3C)[C@]54O)C[C@@H]2OC)O[C@@H](C)[C@@H]1O` [ABAMECTIN]: the LC50 with Tetranychus evansi [2] worked out at 0.19 µg/mL; with Tetranychus evansi [3] it was 0.18 µg/mL; with Tetranychus evansi [4], 0.24 µg/mL; in the assay on Tetranychus evansi [5] it was 0.23 µg/mL.

Turning to `CCOP(=S)(OCC)Oc1nc(Cl)c(Cl)cc1Cl` [CHLORPYRIFOS], the LC50 in the assay on Tetranychus urticae [6] was found to be 4 µg/mL (≈ 0.0114 mM); in the assay on Tetranychus evansi [2], 4380 µg/mL (≈ 12.5 mM); in the assay on Tetranychus evansi [3] it was 3780 µg/mL (≈ 10.8 mM); in the assay with Tetranychus evansi [4] it was 4530 µg/mL (≈ 12.9 mM); in the assay on Tetranychus evansi [5] it was 3760 µg/mL (≈ 10.7 mM).

Source of the values: ChEMBL document CHEMBL3046547, “Pyrethroid resistance in the tomato red spider mite, Tetranychus evansi, is associated with mutation of the para-type sodium channel” (2011).
